Experimental data: patent EP1263458B1, “LOWERING SERUM CHOLESTEROL” (NOVO NORDISK A/S, priority 2000, dated 2005)

Test system: Wistar rats subjected to neonatal monosodium glutamate treatment (MSG)
Assay: Acute and subchronic anorectic effects, plasma triglycerides, model of hypothalamic obesity (MSG rats)
Assay type: in vivo
Details: 100 µg/kg s.c. twice daily, rat group not specified
Procedure: Solutions were always made fresh approximately 1 hour prior to use and stored at 4°C in sterile tubes.

[1] = normalised within few days of treatment

diuresis [1]: increases | water intake [1]: Initial decreases | plasma parameters of renal function (throughout the experiment): remained normal
SMILES: CCCCCCCCCCCCCCCC(=O)N[C@@H](CCC(=O)NCCCC[C@H](NC(=O)[C@H](C)NC(=O)[C@H](C)NC(=O)[C@H](CCC(N)=O)NC(=O)CNC(=O)[C@H](CCC(=O)O)NC(=O)[C@H](CC(C)C)NC(=O)[C@H](Cc1ccc(O)cc1)NC(=O)[C@H](CO)NC(=O)[C@H](CO)NC(=O)[C@@H](NC(=O)[C@H](CC(=O)O)NC(=O)[C@H](CO)NC(=O)[C@@H](NC(=O)[C@H](Cc1ccccc1)NC(=O)[C@@H](NC(=O)CNC(=O)[C@H](CCC(=O)O)NC(=O)[C@H](C)NC(=O)[C@@H](N)Cc1cnc[nH]1)[C@@H](C)O)[C@@H](C)O)C(C)C)C(=O)N[C@@H](CCC(=O)O)C(=O)N[C@@H](Cc1ccccc1)C(=O)N[C@H](C(=O)N[C@@H](C)C(=O)N[C@@H](Cc1c[nH]c2ccccc12)C(=O)N[C@@H](CC(C)C)C(=O)N[C@H](C(=O)N[C@@H](CCCNC(=N)N)C(=O)NCC(=O)N[C@@H](CCCNC(=N)N)C(=O)NCC(=O)O)C(C)C)[C@@H](C)CC)C(=O)O [GLP1, Arg^34, Lys^26(N^ε-(γ-Glu(N^α-hexadecanoyl)))-GLP-1(7-37)]
